# From paper PMC8156604, “Development of Phosphodiesterase–Protein-Kinase Complexes as Novel Targets for Discovery of Inhibitors with Enhanced Specificity” (International Journal of Molecular Sciences, 2021)
# Legend:
# PDE5–PKG complex = target: T1, PDE5–PKG complex (Homo sapiens, UniProt O76074); conditions: PDE5 with cGMP 100 µM, added to 2fg-PKG
# T1 construct: gene PDE5A
# RegA–RD complex = target: T2, RegA–RD complex (Dictyostelium discoideum, UniProt P05987+Q23917); conditions: cGMP 250 µM added to preformed 2fc-RD–RegA complex
# T2 construct: gene pkaR
# T2 sequence (P05987 1-327): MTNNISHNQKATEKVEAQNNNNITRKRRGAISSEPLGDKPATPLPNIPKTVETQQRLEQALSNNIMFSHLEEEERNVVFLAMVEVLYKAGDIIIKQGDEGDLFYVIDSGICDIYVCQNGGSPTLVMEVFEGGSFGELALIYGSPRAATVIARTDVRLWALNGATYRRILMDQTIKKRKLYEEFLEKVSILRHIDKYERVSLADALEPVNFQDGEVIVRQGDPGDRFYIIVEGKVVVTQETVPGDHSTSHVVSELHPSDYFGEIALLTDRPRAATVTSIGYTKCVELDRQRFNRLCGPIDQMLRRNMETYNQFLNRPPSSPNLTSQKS
# T2 sequence (Q23917 1-793): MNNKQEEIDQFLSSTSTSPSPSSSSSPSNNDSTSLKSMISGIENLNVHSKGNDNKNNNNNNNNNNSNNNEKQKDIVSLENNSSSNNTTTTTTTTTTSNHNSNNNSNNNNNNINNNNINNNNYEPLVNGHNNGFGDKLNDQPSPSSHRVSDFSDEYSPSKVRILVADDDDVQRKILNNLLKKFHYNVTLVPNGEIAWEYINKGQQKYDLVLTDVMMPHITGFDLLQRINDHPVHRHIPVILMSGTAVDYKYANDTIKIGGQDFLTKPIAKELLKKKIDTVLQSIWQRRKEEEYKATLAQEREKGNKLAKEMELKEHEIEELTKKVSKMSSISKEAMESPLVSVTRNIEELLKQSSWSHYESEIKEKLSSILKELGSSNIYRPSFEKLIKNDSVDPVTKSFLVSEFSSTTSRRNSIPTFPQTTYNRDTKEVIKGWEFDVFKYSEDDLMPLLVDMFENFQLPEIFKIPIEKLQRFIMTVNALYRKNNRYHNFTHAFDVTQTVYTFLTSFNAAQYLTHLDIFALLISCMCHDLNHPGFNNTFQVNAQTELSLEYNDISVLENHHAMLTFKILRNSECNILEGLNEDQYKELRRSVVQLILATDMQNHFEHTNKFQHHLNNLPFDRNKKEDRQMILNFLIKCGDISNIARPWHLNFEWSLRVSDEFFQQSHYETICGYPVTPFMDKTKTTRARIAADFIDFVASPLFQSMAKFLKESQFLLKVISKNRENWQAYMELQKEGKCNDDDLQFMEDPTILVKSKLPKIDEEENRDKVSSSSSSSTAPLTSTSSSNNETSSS
compound,measurement,setting,value
Nc1nc2c(ncn2[C@@H]2O[C@@H]3COP(=O)(O)O[C@H]3[C@H]2O)c(=O)[nH]1 [cGMP],"fluorescence polarization, 2fluo-cGMP-bound PKG probe",PDE5–PKG complex,suggestive of processive hydrolysis of cGMP by PDE5–PKG composite site
same,"fluorescence polarization, displacement of 2fluo-cAMP",RegA–RD complex,addition of cGMP (lilac plot) resulted in only a partial decrease in FP
